Test results published in article PMC10854695, “Using Flavonoid Substitution Status to Predict Anticancer Effects in Human Melanoma Cancers: An In Vitro Study” (Cancers, 2024).
Like-named read-outs stand apart in the source and are kept apart here.

How the values were obtained:
[1] = system: caspases, PARP, phospho-RSK in C32 cells; assay: Western immunoblot of apoptosis mediators and RSK, C32; assay type: cell-based, human; details: C32, 48 h, Western blot
Experimental: (§1) Floating cells were harvested by centrifugation of the conditioned media (300× g, 5 min). Cell pellet and adherent cells were lysed in a cell lysis buffer supplemented with inhibitors of proteases and phosphatases. The cell lysate was sonicated (2 × 10 s) on ice with an ultrasonic homogenizer (UP200S, Hielscher Ultrasonics GmbH, Teltow, Germany) and centrifuged for 10 min at 10,000× g. The supernatant was collected and stored in a freezer at −70 °C. Protein concentrations in the cell supernatants were determined using a Lowry assay. Obtained proteins were dissolved on SDS-PAGE gels (7.5%, 10%, or 12%) using the Mini-Protean Tetra system. The proteins were transferred to nitrocellulose membranes using the Mini Trans-Blot Cell wet blotting system. The 5% skim milk was used to block membranes. Then, membranes were probed for 24 h at 4 °C with the following antibodies: anti-phospho-RSK, anti-RSK, anti-PARP, anti-cleaved PARP, anti-caspase-8, anti-caspase-9, anti-caspase-7, anti-caspase-3, and anti-actin. Membranes were incubated with an ECL-HRP (enhanced chemiluminescence-horseradish peroxidase) substrate, and the signal was spotted using the BioSpectrum Imaging System and VisionWorks LS software 7.0 (Ultra-Violet Products, Ltd., San Gabriel, CA, USA). The intensity of the bands was quantified by densitometric analysis using UVIBand software, version 15.08d (Uvitec Ltd., Cambridge, UK).

[2] = system: cleaved caspase-3 and cleaved caspase-7 in A375 cells; assay: Immunofluorescence of cleaved caspase-3/-7, A375; assay type: cell-based, human; details: A375, 48 h, immunofluorescent staining
Experimental: Firstly, to examine fluorescent signals, cells were placed in the bottom of 96-well black plates at 1 × 10^4 cells per well and permitted to adhere for 24 h. […] After incubating and removing the medium, cells were fixed in 4% paraformaldehyde for 15 min. Later, cells were rinsed three times with PBS and permeabilized with 0.1% Triton X-100 for 5 min at room temperature. The 10% heat-inactivated goat serum in the PBS was used to block non-specific binding. Subsequently, cells were treated with the following antibodies overnight: anti-cleaved caspase 3 and anti-cleaved caspase-7. […] Cell nuclei were stained with Hoechst 33342 and F-actin was stained with Phalloidin-Atto 488. Fluorescent signals were captured using a BD Pathway 855 confocal microscope (Becton Dickinson, Franklin Lakes, NJ, USA). The mean fluorescence intensity was calculated using ImageJ software (National Institutes of Health, Bethesda, Rockville, MD, USA).

[3] = system: A375 cells; set-up: method as in PMID 28260058; details: 40 µM; cited from earlier work
[4] = in vitro; details: human
Experimental: (§2) The MTT colorimetric assay was performed as a preliminary evaluation of the cytotoxicity of the selected flavonoids according to the method described and validated by Strawa et al. [21]. Briefly, melanoma cells and fibroblasts were seeded in 96-well microplates at a density of 1 × 10^4 cells per well. Fibroblasts were used as a control cell line in order to assess the selectivity of the compounds. […] Subsequently, the cells were washed with PBS, incubated with MTT solution for 2 h, and lysed with dimethyl sulfoxide (DMSO) supplemented with 1% (v/v) Sorensen’s glycine buffer. The absorbance was measured using a microplate reader (EPOCH 2, BioTek, Winooski, VT, USA) at a wavelength of 570 nm. The compounds were used at a final DMSO concentration of no more than 0.1% (v/v) in each well. The results were generated from at least three independent experiments. […] The IC50 values were calculated with GraphPad Prism 9 software (GraphPad Software, San Diego, CA, USA).

[5] = system: A375 melanoma cells; assay: Apoptosis assay, annexin V/PI flow cytometry, A375; assay type: cell-based, human; details: 48 h
Experimental: (§3) Firstly, cells were placed in 6-well plates at a density of 1 × 10^5 cells per well and allowed to adhere for 24 h. Then, cells were treated with 25 µM, 50 µM, and 100 μM of the selected flavonoids (1, 6, 15, 16, 17, 37) and incubated for 48 h. Floating and adherent cells were collected and assayed using the manufacturer’s protocol supported by the Dead Cell Apoptosis Kit for flow cytometry. Concisely, 100 μL of an annexin-binding buffer containing a 5 μL annexin V-FITC conjugate solution and 1 μg/mL PI (propidium iodide) was used to disperse the cells. After 15 min of incubation, an additional 400 μL of the mentioned buffer was added. The cells were analyzed with a DxFLEX flow cytometer (Beckman Coulter, Brea, CA, USA).

[6] = system: C32 melanoma cells; assay: Apoptosis assay, annexin V/PI flow cytometry, C32; assay type: cell-based, human; details: C32, 25 µM, 48 h
Experimental: as §3

[7] = system: C32 melanoma cells; assay: Neutral red uptake (NRU) assay, C32; details: Homo sapiens
[8] = system: A375 melanoma cells; assay: MTT cell viability assay, A375;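 note: Read-out is formazan absorbance at 570 nm after 2 h with MTT, with compounds in at most 0.1% v/v DMSO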
[9] = Neutral red uptake (NRU) assay, normal cells; details: human, human skin fibroblasts (CCD25Sk)
[10] = system: C32 melanoma cells; assay: MTT cell viability assay, C32; details: Homo sapiens, read-out: IC50, cytotoxic activity, MTT test;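 note: MTT added for 2 h, cells lysed in DMSO, absorbance read at 570 nm, compound vehicle kept at or below 0.1% DMSO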
[11] = system: C32 melanoma cells; assay: [3H]-thymidine incorporation (DNA biosynthesis), C32; assay type: cell-based, human; details: read-out: IC50, effect on DNA biosynthesis ([3H]-thymidine incorporation)
Experimental: (§4) The inhibition of DNA biosynthesis was evaluated using [^3H]-thymidine incorporation into the DNA of melanoma cells (C32, A375) and fibroblasts treated with the studied compounds [21]. The cells were briefly seeded in 24-well plates (1 × 10^5 cells per well) and allowed to adhere for 24 h. […] After incubation for 24, 48, and 72 h, the cells were rinsed three times with PBS. Then, cells were lysed in 1 mL of 0.1 M NaOH containing 1% SDS. The cell lysate was moved into scintillation vials containing scintillation liquid, and the radioactivity of the samples was measured using a liquid scintillation analyzer (Perkin-Elmer, Waltham, MA, USA).

[12] = system: human skin fibroblasts (CCD25Sk); assay: [3H]-thymidine incorporation (DNA biosynthesis), normal cells; assay type: cell-based; details: Homo sapiens, Skin fibroblast, read-out: IC50, effect on DNA biosynthesis ([3H]-thymidine incorporation)
[13] = system: cleaved caspase-3 and cleaved caspase-7 in C32 cells; assay: Immunofluorescence of cleaved caspase-3/-7, C32; assay type: cell-based, human; details: C32, 48 h, immunofluorescent staining
[14] = system: A375 melanoma cells; assay: Neutral red uptake (NRU) assay, A375; details: Homo sapiens, read-out: IC50, cytotoxic activity, NRU assay
Experimental: The NRU (neutral red uptake) was conducted as previously described by Szoka and co-workers, with some modifications [22]. Briefly, melanoma cells and fibroblasts were seeded in microplates at the density of 1 × 10^4 cells per well and allowed to adhere for 24 h. […] After treatment, the culture medium was replaced with a neutral red solution (40 µg/mL). An additional 2 h of incubation was performed. The neutral red solution was then removed and the neutral red accumulated in the cells was dissolved in 50% EtOH with 1% of the glacial acetic acid. The absorbance was estimated at 540 nm and IC50 values were calculated using GraphPad Prism software (GraphPad Software, San Diego, CA, USA).

[15] = system: A375 cells; set-up: method as in PMID 26911838; details: 10 and 20 μM, dose-dependent; cited from earlier work
[16] = system: caspases, PARP, phospho-RSK in A375 cells; assay: Western immunoblot of apoptosis mediators and RSK, A375; assay type: cell-based, human; details: A375, 48 h, Western blot
Experimental: as §1

[17] = system: A375 melanoma cells; assay: [3H]-thymidine incorporation (DNA biosynthesis), A375; assay type: cell-based, human; details: read-out: IC50, effect on DNA biosynthesis ([3H]-thymidine incorporation)
Experimental: as §4

[18] = MTT cell viability assay, normal cells; details: human, human skin fibroblasts (CCD25Sk);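 note: fibroblasts served as non-cancer comparison line for selectivity versus melanoma cells, MTT reduction read as absorbance at 570 nm after 2 h dye exposure, compounds in ≤0.1% DMSO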
Experimental: as §2

[19] = system: SK-MEL-2 malignant melanoma cell line; set-up: method as in PMID 36991237; details: read-out: IC50, inhibition of viability, MTS test; cited from earlier work
[20] = system: G-361 malignant melanoma cell line; set-up: method as in PMID 36991237; details: read-out: IC50, inhibition of viability, MTS test; cited from earlier work
[21] = C32, 24 h, read-out: IC50, cytotoxic activity, NRU assay, C32, 24 h
[22] = C32, 48 h, read-out: IC50, cytotoxic activity, NRU assay, C32, 48 h
[23] = C32, 72 h, read-out: IC50, cytotoxic activity, NRU assay, C32, 72 h
[24] = Homo sapiens, A-375, 24 h, read-out: IC50, cytotoxic activity, MTT test, A375, 24 h
[25] = Homo sapiens, A-375, 48 h, read-out: IC50, cytotoxic activity, MTT test, A375, 48 h
[26] = Homo sapiens, A-375, 72 h, read-out: IC50, cytotoxic activity, MTT test, A375, 72 h
[27] = Homo sapiens, A-375, A375, 24 h
[28] = Homo sapiens, A-375, A375, 48 h
[29] = Homo sapiens, A-375, A375, 72 h

Structure (SMILES) | IC50 [7, 21] [µM] | IC50 [7, 22] [µM] | IC50 [7, 23] [µM] | IC50 [8, 24] [µM] | IC50 [8, 25] [µM] | IC50 [8, 26] [µM] | IC50 at 24 h [9] [µM] | IC50 at 48 h [9] [µM] | IC50 at 72 h [9] [µM] | IC50 ([10]; C32, 24 h) [µM] | IC50 ([10]; C32, 48 h) [µM] | IC50 ([10]; C32, 72 h) [µM] | IC50 ([11]; Homo sapiens, C32, C32, 24 h) [µM] | IC50 ([11]; Homo sapiens, C32, C32, 48 h) [µM] | IC50 ([11]; Homo sapiens, C32, C32, 72 h) [µM] | IC50 ([12]; 24 h) [µM] | IC50 ([12]; 48 h) [µM] | IC50 ([12]; 72 h) [µM] | IC50 ([14]; A-375, 24 h) [µM] | IC50 ([14]; A-375, 48 h) [µM] | further results
O=c1cc(-c2ccc(O)cc2)oc2cc(O)cc(O)c12 [Compound 1, apigenin] | 100 to 200 | 25.7 ± 1.6 | 22.4 ± 1.5 | > 200 | 31.9 ± 3 | 20.7 ± 1.5 | > 200 | 87.8 ± 5.8 | 58 ± 3.2 | > 200 | 63.1 ± 4.7 | 31.8 ± 2.5 | > 200 | 27.1 ± 0.49 | 22.5 ± 1.2 | 188 ± 8.1 | 189 ± 9.5 | > 200 | 64.5 ± 4.3 | 24.7 ± 2.4 | cleaved PARP and caspase-9 [1]: generated cleaved PARP and caspase-9; level of cleaved caspase-3 [2]: slightly increased; A375 cell viability, MTT assay [3]: decreased A375 cell viability; IC50 at 24 h [4]: > 200 µM; IC50 at 48 h [4]: > 200 µM; IC50 at 72 h [4]: 100 to 200 µM; level of early apoptotic cells ([5]; A375, 50 µM): 34.2 ± 2.8%; level of late apoptotic cells ([5]; A375, 50 µM): 7.1 ± 1.6%; percentage of early apoptotic cells [6]: 13.3 ± 2.4%; percentage of late apoptotic cells [6]: 29.4 ± 3.3%; IC50 ([11]; C32, 48 h): 27 ± 1.4 µM; caspase-3 expression [13]: notably extended; IC50 ([14]; A-375, 72 h): 21.2 ± 1.4 µM; A375 cell motility and invasion [15]: significantly inhibited; cleavage of initiator caspases, caspase-9 and caspase-8 [16]: cleavage of both initiator caspases; levels of the caspases-3 and -7 zymogens [16]: decreased levels; IC50 ([17]; A375, 48 h): 28.6 ± 1.8 µM; IC50 [17, 27]: 87.7 ± 4.2 µM; IC50 [17, 28]: 28.6 ± 0.84 µM; IC50 [17, 29]: 23.4 ± 1.6 µM
O=c1cc(-c2ccc(O)c(O)c2)oc2cc(O)cc(O)c12 [Compound 6, luteolin] | 41.3 ± 3.8 | 13.1 | 12.6 ± 1.2 | > 200 | 38.2 | 24.6 ± 1.6 | > 200 | 45.2 ± 2.6 | 21.4 ± 1.7 | > 200 | 42.1 ± 3.5 | 13.1 ± 1.3 | > 200 | 30.9 ± 2.2 | 24.5 ± 1.81 | > 200 | > 200 | > 200 | 58.1 ± 4.2 | 25.7 | cleaved PARP and caspase-9 [1]: generated cleaved PARP and caspase-9; level of cleaved caspase-3 [2]: slightly increased; level of early apoptotic cells ([5]; A375, 25 µM): 63.6 ± 6.1%; level of late apoptotic cells ([5]; A375, 25 µM): 13.0 ± 1.8%; IC50 ([8]; read-out: IC50, cytotoxic activity, MTT test, A375, 48 h): 38.2 ± 4.1 µM; IC50 at 24 h [18]: > 200 µM; IC50 at 48 h [18]: 69.7 ± 5.2 µM; IC50 at 72 h [18]: 20.1 ± 1.4 µM; caspase-3 expression [13]: notably extended; level of the cleaved caspase-7 [13]: slightly increased; IC50 ([14]; A-375, 72 h): 23.9 ± 0.23 µM; cleavage of initiator caspases, caspase-9 and caspase-8 [16]: cleavage of both initiator caspases; levels of the caspases-3 and -7 zymogens [16]: decreased levels; IC50 ([17]; A375, 48 h): 38.5 ± 2.9 µM; IC50 [17, 27]: > 200 µM; IC50 [17, 28]: 38.6 ± 0.91 µM; IC50 [17, 29]: 30.9 ± 1.8 µM
O=c1cc(-c2ccccc2)oc2c(O)c(O)ccc12 [Compound 16, 7,8-dihydroxyflavone] | > 200 | 19.9 ± 1.2 | 16.5 ± 2.1 | 100 to 200 | 33.2 ± 3.2 | 20.5 ± 2.2 | > 200 | 100 to 200 | 72.9 ± 5.6 | 100 to 200 | 39.2 ± 2.6 | 26.2 ± 2.8 | 38.1 ± 1.5 | 18.4 ± 0.42 | 12.8 ± 0.9 | 81.6 ± 5.8 | 64.6 ± 2.8 | 37 ± 2.5 | 100 to 200 | 36 ± 3.5 | IC50 [19]: 200 to 250 µM; level of early apoptotic cells ([5]; A375, 25 µM): 49.1 ± 3.9%; level of late apoptotic cells ([5]; A375, 25 µM): 6.4 ± 1.5%; IC50 at 24 h [18]: > 200 µM; IC50 at 48 h [18]: 100 to 200 µM; IC50 at 72 h [18]: 93.3 ± 8 µM; IC50 ([11]; C32, 48 h): 18.4 ± 1.4 µM; level of the cleaved caspase-7 [13]: slightly increased; IC50 [20]: 200 to 250 µM; IC50 ([14]; A-375, 72 h): 27.4 ± 2.4 µM; cleavage of caspase-9 [16]: weak cleavage; expression of cleaved caspase-8 [16]: increased; phosphorylation of the RSK protein [16]: impaired; IC50 ([17]; A375, 48 h): 29.7 ± 1.6 µM; IC50 [17, 27]: 62.1 ± 3.9 µM; IC50 [17, 28]: 29.7 ± 0.62 µM; IC50 [17, 29]: 20.5 ± 2.2 µM
